One data set deals with T1, BRD4_2 (Homo sapiens, UniProt O60885).
T1 construct: contains two tandem bromodomains (BrD1 and BrD2)
Nature of the data set: Fluorescence anisotropy binding assay (competition with FITC-labeled MS417 probe), BRD4_2. The settings on record: FITC-MS417 probe 80 nM, PBS pH 7.4, 1 hour, 25° C. (Fluorescence polarisation rises when a labelled molecule tumbles more slowly, as on binding a larger partner.)

Data set [1] has as its target T2, first bromodomain (BrD1) of human BRD4 (Homo sapiens, UniProt O60885).
T2 construct: the first bromodomain (BrD1) of human BRD4; poly-His (cleaved yes); made in house
Nature of the data set: Fluorescence anisotropy binding assay (competition with FITC-labeled MS417 probe). The conditions noted are these: FITC-MS417 probe 80 nM, PBS pH 7.4, 1 hour, 25° C., read-out: BRD4_1 IC50. Put shortly:
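BRD4 BrD1 (His tag removed by thrombin) at 0.25 to 1 μM competed against 80 nM FITC-labeled MS417 in PBS pH 7.4. Anisotropy read after 1 hour at 25° C. Ki derived from fitted IC50 by Nikolovska-Coleska-corrected Cheng-Prusoff equation, one-site competitive model.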

On to `CC1=C(Nc2cc(S(N)(=O)=O)ccc2Cl)CCC1=O` (hydrate or solvate) [Example 01-46, 4-chloro-3-((2-methyl-3-oxocyclopent-1-en-1-yl)amino)benzene-sulfonamide], for which the melting point – broadly, the temperature of the solid-liquid transition – was 223 to 225 °C.
`CC1=C(Nc2cccc(C(=O)O)c2)CCC1=O` [Example 01-03, 3((2-methyl-3-oxocyclopent-1-en-1-yl)amino)benzoic acid] displayed a melting point of 236 to 238 °C.
`COC(=O)c1cccc(NC2=C(C)C(=O)CC2)c1` [Example 01-04, methyl 3-((2-methyl-3-oxocyclopent-1-en-1-yl)amino)benzoate] returned a melting point of 133 to 135 °C.
The compound `CC(=O)c1ccc(NC2=C(C)C(=O)CC2)cc1` [Example 01-09, 3-((4-acetylphenyl)amino)-2-methylcyclopent-2-enone] yielded a melting point of 270 to 273 °C.
Compound `CC1=C(Nc2ccc(C(=O)O)c(Cl)c2)CCC1=O` [Example 01-10, 2-chloro-4((2-methyl-3-oxocyclopent-1-en-1-yl)amino)benzoic acid] came in with a melting point of 239 to 241 °C. In addition, the IC50 – broadly, the point on the concentration scale where inhibition reaches its midpoint – at BRD4_2 is more than 10 µM. Moreover, in data set [1], the 50% inhibitory concentration (IC50) is more than 10 µM.
The compound `COc1cc(C(=O)O)ccc1NC1=C(C)C(=O)CC1` [Example 01-12, 3-methoxy-4-((2-methyl-3-oxocyclopent-1-en-1-yl)amino)benzoic acid] came in with a melting point of 231 to 234 °C. This compound also gave a half-maximal inhibitory concentration (IC50) on BRD4_2 of 1 to 10 µM. The IC50 in data set [1] was 1 to 10 µM.
In the case of `COC(=O)c1ccc(NC2=C(C)C(=O)CC2)cc1OC` [Example 01-13, methyl 2-methoxy-4-((2-methyl-3-oxocyclopent-1-en-1-yl)amino)benzoate], the melting point lay in the range of 193 to 196 °C. Further, on BRD4_2, the IC50 was in the range of 1 to 10 µM. Further, the concentration for half-maximal inhibition (IC50) in data set [1] is 1 to 10 µM.
On to `CC1=C(Nc2ccc(C(=O)O)cc2C)CCC1=O` [Example 01-14, 3-methyl-4-((2-methyl-3-oxocyclopent-1-en-1-yl)amino)benzoic acid], for which the melting point lay within 233 to 236 °C. The concentration for half-maximal inhibition (IC50) at BRD4_2 is 1 to 10 µM. Besides, the IC50 in data set [1] was in the range of 1 to 10 µM.
`CC1=C(Nc2ccc(C(=O)O)c(C)c2)CCC1=O` [Example 01-16, 2-methyl-4-((2-methyl-3-oxocyclopent-1-en-1-yl)amino)benzoic acid]: the melting point is 213 to 216 °C. The compound further had an IC50 at BRD4_2 of more than 10 µM. Besides, the concentration for half-maximal inhibition (IC50) in data set [1] was more than 10 µM.
The compound `CC1=C(Nc2ccccc2C(N)=O)CCC1=O` [Example 01-18, 2-((2-methyl-3-oxocyclopent-1-en-1-yl)amino)benzamide] yielded a melting point of 235 to 238 °C. This compound had a half-inhibitory concentration (IC50) on BRD4_2 of more than 10 µM. Also, in data set [1], the IC50 is more than 10 µM.
For the compound `COC(=O)c1cc(Cl)ccc1NC1=C(C)C(=O)CC1` [Example 01-20, methyl 5-chloro-2-((2-methyl-3-oxocyclopent-1-en-1-yl)amino)benzoate], the melting point fell in the range of 162 to 165 °C. The compound further had a 50% inhibitory concentration (IC50) on BRD4_2 of more than 10 µM. Further, in data set [1], the IC50 is more than 10 µM.
Turning to `COC(=O)c1ccc(NC2=C(C)C(=O)CC2)c(F)c1` [Example 01-21, methyl 3-fluoro-4((2-methyl-3-oxocyclopent-1-en-1-yl)amino)benzoate], the melting point lay in the range of 198 to 201 °C. For the same compound, the half-maximal inhibitory concentration (IC50) on BRD4_2 was more than 10 µM. Further, in data set [1], the half-maximal inhibitory concentration (IC50) was 1 to 10 µM.
The like results for `COC(=O)c1ccc(NC2=C(C)C(=O)CC2)c(Br)c1` [Example 01-22, methyl 3-bromo-4((2-methyl-3-oxocyclopent-1-en-1-yl)amino)benzoate] were, in that order, 155 to 158 °C, 1 to 10 µM and 1 to 10 µM.
In turn, `CC1=C(Nc2cccc(Cl)c2C(=O)O)CCC1=O` [Example 01-23, 2-chloro-6((2-methyl-3-oxocyclopent-1-en-1-yl)amino)benzoic acid] gave a melting point of 277 to 280 °C. For the same compound, the concentration for half-maximal inhibition (IC50) at BRD4_2 was more than 10 µM. Besides, in data set [1], the half-maximal inhibitory concentration (IC50) was more than 10 µM.
As for `COC(=O)c1ccc(Cl)cc1NC1=C(C)C(=O)CC1` [Example 01-24, methyl 4-chloro-2-((2-methyl-3-oxocyclopent-1-en-1-yl)amino)benzoate], the melting point is 167 to 170 °C. The IC50 at BRD4_2 was more than 10 µM. The 50% inhibitory concentration (IC50) in data set [1] lay in the range of 1 to 10 µM.
Taken in the same sequence, the figures for `CC1=C(Nc2cc(C(=O)O)ccc2Cl)CCC1=O` [Example 01-25, 4-chloro-3((2-methyl-3-oxocyclopent-1-en-1-yl)amino)benzoic acid] were 272 to 275 °C, more than 10 µM and 1 to 10 µM.
In turn, `CC1=C(Nc2cccc3ccccc23)CCC1=O` [Example 01-26, 2-methyl-3-(naphthalen-1-ylamino)cyclopent-2-enone] came in with a melting point of 166 to 168 °C. This compound showed a 50% inhibitory concentration (IC50) at BRD4_2 of 1 to 10 µM. Besides, in data set [1], the 50% inhibitory concentration (IC50) was 1 to 10 µM.
As to `CC1=C(Nc2ccc3ccccc3c2)CCC1=O` [Example 01-27, 2-methyl-3-(naphthalen-2-ylamino)cyclopent-2-enone], the melting point is 248 to 250 °C. Further, the 50% inhibitory concentration (IC50) at BRD4_2 was 1 to 10 µM. In addition, in data set [1], the half-inhibitory concentration (IC50) is 1 to 10 µM.
In turn, `CC1=C(Nc2ccc(CC(=O)O)cc2)CCCC1=O` [Example 01-38, 2-(4((2-methyl-3-oxocyclohex-1-en-1-yl)amino)phenyl)acetic acid] returned a melting point of 215 to 219 °C.
The same measure, in the same setting: then `CC(=O)Nc1ccc(Cl)c(NC2=C(C)C(=O)CCC2)c1` [Example 01-47, N-(4-chloro-3-((2-methyl-3-oxocyclohex-1-en-1-yl)amino)phenyl)-acetamide], with 234 to 236 °C.
Still for that read-out and setting: next, `CC1=C(Nc2ccc(C(=O)O)cc2)CCC1=O` [Example 02-01, 4((2-methyl-3-oxocyclopent-1-en-1-yl)amino)benzoic acid]: 228 to 230 °C; `CC1=C(Nc2ccc(C(=O)O)cc2Cl)CCC1=O` [Example 02-02, 3-chloro-4((2-methyl-3-oxocyclopent-1-en-1-yl)amino)benzoic acid]: 226 to 230 °C; `COc1cc(NC2=C(C)C(=O)CC2)ccc1C(=O)O` [Example 02-03, 2-methoxy-4((2-methyl-3-oxocyclopent-1-en-1-yl)amino)benzoic acid]: 240 to 243 °C.
Same read-out and setting: then `CC1=C(Nc2ccccc2C(=O)O)CCC1=O` [Example 02-04, 2-((2-methyl-3-oxocyclopent-1-en-1-yl)amino)benzoic acid], with 245 to 248 °C.
On to `CC1=C(Nc2ccc(Cl)cc2C(=O)O)CCC1=O` [Example 02-05, 5-chloro-2-((2-methyl-3-oxocyclopent-1-en-1-yl)amino)benzoic acid], for which the melting point lay within 242 to 245 °C.
Still for that read-out and setting: then `CC1=C(Nc2ccc(C(=O)O)cc2F)CCC1=O` [Example 02-06, 3-fluoro-4((2-methyl-3-oxocyclopent-1-en-1-yl)amino)benzoic acid], with 210 to 213 °C; and `CC1=C(Nc2ccc(C(=O)O)cc2Br)CCC1=O` [Example 02-07, 3-bromo-4-((2-methyl-3-oxocyclopent-1-en-1-yl)amino)benzoic acid], with 246 to 248 °C; and `CC1=C(Nc2ccc(C(=O)O)cc2I)CCC1=O` [Example 02-08, 3-iodo-4-((2-methyl-3-oxocyclopent-1-en-1-yl)amino)benzoic acid], with 263 to 264 °C.

(Values after patent publication US9884806B2, “Cyclic vinylogous amides as bromodomain inhibitors” (ICAHN SCHOOL OF MEDICINE AT MOUNT SINAI, priority 2013, dated 2018).)
